From publication PMC8388879 (Antioxidants, 2021)

How the values were obtained:
[1] = molecular target: T1, human TYR (tyrosinase) (Homo sapiens, UniProt P14679); assay: dopachrome formation (A475) in lysate of HEK293 cells expressing human TYR; […] inhibition at […] (dopaquinone trapping may contribute); format: cell-based
T1 sequence (P14679 19-529): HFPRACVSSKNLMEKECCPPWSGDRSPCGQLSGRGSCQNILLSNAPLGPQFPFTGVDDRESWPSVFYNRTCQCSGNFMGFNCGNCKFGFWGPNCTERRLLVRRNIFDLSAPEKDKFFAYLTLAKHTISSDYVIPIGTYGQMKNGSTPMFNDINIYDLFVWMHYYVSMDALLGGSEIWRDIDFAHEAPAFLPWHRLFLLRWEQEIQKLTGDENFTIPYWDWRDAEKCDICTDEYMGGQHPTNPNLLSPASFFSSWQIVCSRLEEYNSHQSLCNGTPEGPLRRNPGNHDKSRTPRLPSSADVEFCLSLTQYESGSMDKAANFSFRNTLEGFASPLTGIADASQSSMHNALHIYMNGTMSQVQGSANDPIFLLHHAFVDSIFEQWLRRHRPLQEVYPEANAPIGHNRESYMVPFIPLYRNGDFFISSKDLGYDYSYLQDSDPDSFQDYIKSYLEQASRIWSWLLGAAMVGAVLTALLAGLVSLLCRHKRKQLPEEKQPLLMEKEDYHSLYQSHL

[2] = molecular target: mushroom TYR (tyrosinase); assay: dopachrome formation from L-DOPA (A475), commercial mushroom TYR; IC50 […] at […] L-DOPA, […] at […]; also traps dopaquinone; format: biochemical

For N[C@@H](CS)C(=O)O [L-cysteine], the inhibition at 200 µM [1] was 70%.
With NC(=O)[C@@H](N)CS [C-NH2, L-Cysteinamide] the IC50 [2] was 115 µM.
